# Data from article PMC12311259, “Antifibrotic effects of specific targeting of the 5‐hydroxytryptamine 2B receptor (5‐HT2BR) in murine models and ex vivo models of scleroderma skin” (Arthritis & Rheumatology (Hoboken, N.j.), 2025).
# Experiments:
# [1] = system: approximately 200 targets; assay: Eurofins Panlabs Spectrum screen selectivity panel (enzymatic and receptor binding assays); settings: no binding defined as <50% inhibition at 10 μM
# Description: (§1) Effects were considered significant if AM1476's mean value was three or more SDs above the vehicle control mean in the agonist assay or three or more SDs below the positive control agonist (5‐nM α‐methylserotonin) mean in the antagonist assay. AM1476 was screened for selectivity against approximately 200 targets using a Eurofins Panlabs Spectrum screen panel including enzymatic and receptor binding assays.
# [2] = molecular target: T1, Serotonin (5-Hydroxytryptamine) 5-HT3 (hu) (Homo sapiens, UniProt P46098); assay: Receptor binding, Eurofins Panlabs 271910
# T1 construct: Eurofins Panlabs 271910
# Description: as §1
# Adrenergic α1B (hu) = molecular target: T2, Adrenergic α1B (hu) (Homo sapiens, UniProt P35368); assay: Functionality assay, IP1, Eurofins Panlabs 302060; format: cell-based
# T2 construct: Eurofins Panlabs 302060
# Description: as §1
# Serotonin 5-HT6 (hu) = molecular target: T3, Serotonin 5-HT6 (hu) (Homo sapiens, UniProt P50406); assay: Functionality assay, Adenylyl Cyclase, Eurofins Panlabs 318000; format: cell-based
# T3 construct: 318000 (adenylyl cyclase)
# Description: as §1
# [3] = system: Sodium Channel, Site 2 (gp); assay: Functionality assay, Eurofins Panlabs 475010; format: biochemical, guinea pig
# Description: as §1
# [4] = system: cGvHD-induced pulmonary fibrosis; assay: Sclerodermatous cGvHD mouse model, pulmonary fibrosis; format: in vivo
# Method: AM1476 was dissolved in sterile distilled water for the ex vivo and in vivo experiments. A concentration of 30 μM was applied for the ex vivo experiment. For the in vivo experiments, 1, 3, or 10 mg/kg was administered orally once or twice daily.
# The B10.D2→BALB/c (H‐2d) minor histocompatibility antigen–mismatched model was performed as described.[9], [10] Briefly, female BALB/c (H‐2d) mice were purchased from Janvier. Male B10.D2 (H‐2d) mice were initially purchased from Jackson Laboratory. All mice were maintained in specific pathogen‐free conditions with sterile pellet food and water and a normal day–night cycle. For isolation of unfractionated bone marrow cells, tibial and femoral bones were prepared under sterile conditions. Phosphate buffered saline (PBS) was used to flush bone marrow cells from bone marrow cavities. Subsequently, bone marrow cells were filtered through 70‐μm nylon meshes (BD Biosciences), followed by erythrocyte hemolysis. The remaining bone marrow cells were kept on ice until transplantation. Transplantation of bone marrow cells and splenocytes was performed as follows: Recipient mice (BALB/c [H‐2d]) eight weeks of age received total body irradiation with 750 cGy. Six hours after irradiation, all BALB/c (H‐2d) recipients received bone marrow from either BALB/c (H‐2d) in a syngeneic transplantation manner or B10.D2 (H‐2d) in an allogeneic transplantation manner. For transplantation, 5 × 10[6] splenocytes and 2 × 10[6] bone marrow cells from donor mice were resuspended in 0.2 mL of PBS and injected via tail veins.[9], [10] […] The outcome of treatment was analyzed seven weeks after transplantation. Eight mice per group were analyzed.
# Skin samples were fixed in 4% formalin for six hours and embedded in paraffin. […] The dermal thickness was quantified on H&E‐stained sections using images captured with a light microscope (Nikon eclipse 80i) at 100‐fold magnification by manually measuring the distance between the epidermal‐dermal junction and the dermal‐subcutaneous fat junction at four sites per mouse.[15], [16] […] Histologic readouts were evaluation of the fibrotic area as the percentage of the total lung area in sirius red–stained sections (two sections per mouse) and quantification of pulmonary changes using the Ashcroft score (four sections per mouse).[17], [18]
# The amount of collagen protein in skin and lung samples was determined by hydroxyproline assay.[19], [20] […] The absorbance was determined at 557 nm with a Spectra MAX 190 microplate spectrophotometer. Absolute values were determined using a standard curved generated with type I collagen (Sigma‐Aldrich).
# healthy individuals = assay: Phase 1 clinical trial, safety, tolerability and pharmacokinetic profile (NCT04691115); format: in vivo, human; settings: for Any adverse event / Depressed level of consciousness / Dizziness / Gastrointestinal disorders / Headache / Nausea / Nervous system disorders / Presyncope / Serious adverse event / Syncope: fasted, N = 6
# Description: These findings prompted us to perform a phase 1 clinical trial investigating safety, tolerability, and the pharmacokinetic profile of AM1476 in healthy individuals (ClinicalTrials.gov identifier NCT04691115). […] An excerpt of the summary of adverse events is found in Supplementary Table S5. […] The anticipated clinical efficacy exposure was well covered by investigated doses.
# [5] = all three doses, vs vehicle-treated mice seven weeks after BMT
# T2 sequence (P35368 whole entry): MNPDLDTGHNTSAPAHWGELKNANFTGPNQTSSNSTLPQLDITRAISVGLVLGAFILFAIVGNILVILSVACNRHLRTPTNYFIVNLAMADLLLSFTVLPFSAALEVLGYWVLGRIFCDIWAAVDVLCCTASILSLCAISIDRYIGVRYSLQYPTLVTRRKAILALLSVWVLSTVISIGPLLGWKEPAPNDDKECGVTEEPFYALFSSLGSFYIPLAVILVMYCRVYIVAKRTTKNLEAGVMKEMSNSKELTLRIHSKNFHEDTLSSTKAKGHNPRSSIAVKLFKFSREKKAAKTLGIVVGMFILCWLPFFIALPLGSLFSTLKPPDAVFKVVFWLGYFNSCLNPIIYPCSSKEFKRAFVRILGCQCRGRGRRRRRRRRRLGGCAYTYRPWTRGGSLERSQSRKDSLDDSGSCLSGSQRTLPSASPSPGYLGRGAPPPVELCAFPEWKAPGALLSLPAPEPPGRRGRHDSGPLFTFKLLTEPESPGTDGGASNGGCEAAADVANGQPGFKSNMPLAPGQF
# T3 sequence (P50406 whole entry): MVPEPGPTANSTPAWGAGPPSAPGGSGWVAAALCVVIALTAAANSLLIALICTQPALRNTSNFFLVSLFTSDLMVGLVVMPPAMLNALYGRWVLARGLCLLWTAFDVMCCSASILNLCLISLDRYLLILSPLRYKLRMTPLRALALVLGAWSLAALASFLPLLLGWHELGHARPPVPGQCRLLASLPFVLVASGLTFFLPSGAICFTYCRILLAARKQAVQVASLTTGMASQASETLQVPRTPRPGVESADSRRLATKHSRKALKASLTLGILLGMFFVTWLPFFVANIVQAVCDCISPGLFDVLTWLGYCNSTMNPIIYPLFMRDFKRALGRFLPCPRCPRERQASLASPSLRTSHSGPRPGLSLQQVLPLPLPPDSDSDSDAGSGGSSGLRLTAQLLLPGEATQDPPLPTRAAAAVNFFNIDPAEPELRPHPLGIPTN
# T1 sequence (P46098 24-478): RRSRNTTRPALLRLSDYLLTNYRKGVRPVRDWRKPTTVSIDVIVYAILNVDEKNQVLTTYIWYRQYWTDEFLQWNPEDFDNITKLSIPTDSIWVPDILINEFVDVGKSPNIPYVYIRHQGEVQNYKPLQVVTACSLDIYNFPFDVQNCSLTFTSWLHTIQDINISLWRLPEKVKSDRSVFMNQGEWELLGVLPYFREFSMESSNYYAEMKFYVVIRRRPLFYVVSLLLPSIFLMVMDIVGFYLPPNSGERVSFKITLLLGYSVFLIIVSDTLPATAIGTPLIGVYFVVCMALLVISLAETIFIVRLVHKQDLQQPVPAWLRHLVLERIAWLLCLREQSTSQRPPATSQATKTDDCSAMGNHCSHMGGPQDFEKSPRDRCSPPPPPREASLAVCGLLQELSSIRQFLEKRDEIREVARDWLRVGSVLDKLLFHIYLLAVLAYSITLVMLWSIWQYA
smiles,measurement,setting,value
C[C@@H]1CN(C(=N)N)N=C1c1ccc(F)cc1O [AM1476],binding to approximately 200 other targets,[1],no binding to the majority of targets
same,"% Inhibition at 10 µM, 5-HT3 (hu)",[2],14%
same,IC50,Adrenergic α1B (hu),9.53 µM
same,"agonistic activity, Adrenergic α1B",Adrenergic α1B (hu); at 30 µM,No significant agonistic activity at 30 µM
same,IC50,Serotonin 5-HT6 (hu),4.55 µM
same,"agonistic activity, Serotonin 5-HT6",Serotonin 5-HT6 (hu); at 30 µM,No significant agonistic activity at 30 µM
same,IC50,[3],> 30 µM
same,"agonistic activity, Sodium Channel, Site 2",[3]; at 30 µM,No significant agonistic activity at 30 µM
same,"hydroxyproline levels, lung, vs mice killed three weeks after BMT",[4]; 10 mg/kg qd,below those of mice killed three weeks after BMT
same,Ashcroft scores,[4]; [5],reduced
same,collagen-covered lung area,[4]; [5],reduced
same,"hydroxyproline content, lung",[4]; [5],reduced
same,Any adverse event,healthy individuals; 375 mg BID,2 (33.3%) no. of subjects (%)
same,Depressed level of consciousness,healthy individuals; 375 mg BID,0 no. of subjects (%)
same,Dizziness,healthy individuals; 375 mg BID,1 (16.7%) no. of subjects (%)
same,Gastrointestinal disorders,healthy individuals; 375 mg BID,2 (33.3%) no. of subjects (%)
same,Headache,healthy individuals; 375 mg BID,2 (33.3%) no. of subjects (%)
same,Nausea,healthy individuals; 375 mg BID,2 (33.3%) no. of subjects (%)
same,Nervous system disorders,healthy individuals; 375 mg BID,2 (33.3%) no. of subjects (%)
same,Presyncope,healthy individuals; 375 mg BID,0 no. of subjects (%)
same,Serious adverse event,healthy individuals; 375 mg BID,0 no. of subjects (%)
same,Syncope,healthy individuals; 375 mg BID,0 no. of subjects (%)
same,Any adverse event,healthy individuals; 500 mg BID,4 (66.7%) no. of subjects (%)
same,Depressed level of consciousness,healthy individuals; 500 mg BID,0 no. of subjects (%)
same,Dizziness,healthy individuals; 500 mg BID,1 (16.7%) no. of subjects (%)
same,Gastrointestinal disorders,healthy individuals; 500 mg BID,1 (16.7%) no. of subjects (%)
same,Headache,healthy individuals; 500 mg BID,1 (16.7%) no. of subjects (%)
same,Nausea,healthy individuals; 500 mg BID,1 (16.7%) no. of subjects (%)
same,Nervous system disorders,healthy individuals; 500 mg BID,2 (33.3%) no. of subjects (%)
same,Presyncope,healthy individuals; 500 mg BID,0 no. of subjects (%)
same,Serious adverse event,healthy individuals; 500 mg BID,0 no. of subjects (%)
same,Syncope,healthy individuals; 500 mg BID,0 no. of subjects (%)
same,serious adverse events,healthy individuals; healthy individuals,no serious adverse events were reported
same,severity of adverse events,healthy individuals; healthy individuals,most of the adverse events were mild in severity
same,tolerability,healthy individuals; healthy individuals,well tolerated
same,time to steady state,healthy individuals; multiple-dose period,by day two
same,absorption,"healthy individuals; single and multiple oral administration, fasted state",rapidly absorbed
